Where two headings read alike, the source gives them in different places.
How the values were obtained:
ROCK1 = molecular target: T1, ROCK1 (Homo sapiens, UniProt Q13464); assay: Rho kinase inhibition assay (IMAP fluorescence polarization), ROCK1; type: biochemical;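 note: kinase reaction run 60 min at room temperature, then phosphorylated substrate captured on IMAP beads for 30 min, with fluorescence polarization read in mP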
T1 construct: purchased Upstate/Chemicon 14-601
Description: (§1) Following the pre-incubation, 10 μM ATP was added to initiate the reaction. After 60 minutes at room temperature, Molecular Devices IMAP™ binding solution was added to bind phosphorylated substrate. After 30 minutes of incubation in the presence of the IMAP™ beads, the fluorescence polarization was read and the ratio was reported as mP. IC50 values for compounds and EC50 values for ATP were calculated using the Prism software from Graphpad.

ROCK2 = molecular target: T2, ROCK2 (Homo sapiens, UniProt O75116); assay: Rho kinase inhibition assay (IMAP fluorescence polarization), ROCK2; type: biochemical;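 note: kinase reaction started with 10 µM ATP and run 60 min at room temperature, then phosphorylated substrate captured on IMAP beads for 30 min and fluorescence polarization read in mP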
T2 construct: purchased Upstate/Chemicon 14-451
Description: as §1

[1] = Rat oral pharmacokinetics (plasma); type: in vivo; details: 20-30 μmol/kg; for half-life: mean n = 3, read-out: t½ (converted)
human neutrophils = assay: Human neutrophil chemotaxis induced by fMLP (modified Boyden chamber); type: cell-based
Description: This assay is an in vitro assay of neutrophil chemotaxis that can be used to evaluate the ability of Rho Kinase inhibitor compounds of Formula I or II to inhibit the migration of human neutrophils, an inflammatory cell that has been implicated in the pathophysiology of allergic conjunctivitis.
Peripheral blood from healthy human volunteers was collected and the neutrophils were isolated by Ficoll-paque density centrifugation followed by dextran sedimentation and hypotonic lysis of the red blood cells. Neutrophil chemotaxis was assessed using a modified Boyden Chamber (Neuroprobe, 96-well) with a 3 μm pore polycarbonate membrane. The ability of the tested compounds to block chemotaxis induced by a 1 μM fMLP challenge during a one hour incubation at 37° C. with 5% CO2 was assessed in a dose response manner.

[2] = test system: A-10 rat thoracic aorta cells; assay: PDGF-stimulated smooth muscle cell proliferation assay (BrdU incorporation); type: cell-based; details: A-10 cells, 10 ng/mL PDGF, BrdU incorporation, percent of total challenge-stimulated proliferation; for Percent of PDGF Induced Proliferation at 1 μM Avg: 1 μM test compound; for Percent of PDGF Induced Proliferation at 10 μM Avg: 10 μM test compound;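 for all read-outs here: cells kept in serum-free medium, BrdU allowed to incorporate for 24 h, then incorporated label detected fluorometrically with an anti-BrdU antibody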
Akt3 human enzyme = molecular target: T3, Akt3 human enzyme (Homo sapiens, UniProt Q9Y243); assay: Akt3 inhibition assay (IMAP FP); type: biochemical;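 note: kinase reaction run 60 min at room temperature after 30 µM ATP start, phosphorylated substrate captured on IMAP beads and read as fluorescence polarization (mP)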
T3 construct: purchased Upstate Chemicon 14-502
Description: Inhibition of Akt3 and p70S6K activity was determined using the IMAP™ FP Progressive Binding Kit (Molecular Devices product number R8127). […] Following the pre-incubation, 30 μM ATP was added to initiate the reaction. After 60 minutes at RT, Molecular Devices IMAP™ binding solution was added to bind phosphorylated substrate. After 30 minutes of incubation in the presence of the IMAP™ beads the fluorescence polarization was read and the ratio was reported as mP. IC50 results were calculated using the Prism software from Graphpad. The Ki values were determined according to the following formula: Ki=IC50/(1+([ATP Challenge]/EC50 ATP)).

p70S6K human enzyme = molecular target: T4, p70S6K human enzyme (Homo sapiens, UniProt P23443, T412E); assay: p70S6K inhibition assay (IMAP FP); type: biochemical;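 note: kinase reaction run at room temperature, phosphorylated substrate captured on IMAP beads and read as fluorescence polarization in mP, IC50 then converted to Ki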
T4 construct: purchased Upstate Chemicon 14-486

[3] = Compound plasma concentrations in unsensitized mice at 15 min post administration; type: in vivo; details: mouse, 15 μmol/kg; mean compound plasma concentration in mice at 15 minutes post oral administration; read-out: Mouse Oral PK
[4] = 10 μM ATP, read-out: ROCK2 Ki, Avg
[5] = male, CD Sprague Dawley, mean n = 3
[6] = male, CD Sprague Dawley, mean n = 3, read-out: Cmax
[7] = male, CD Sprague Dawley, mean n = 3, read-out: Tmax
[8] = Neutrophil, 1 h, 1 μM fMLP challenge, one hour, read-out: Chemotaxis Avg. IC50
[9] = 30 μM ATP, Ki=IC50/(1+([ATP Challenge]/EC50 ATP)), read-out: Akt3 Ki, Avg
[10] = 30 μM ATP, Ki=IC50/(1+([ATP Challenge]/EC50 ATP)), read-out: p70S6K Ki, Avg
[11] = average Ki, read-out: p70S6K Ki
[12] = average IC50 for inhibition of fMLP-induced neutrophil chemotaxis, read-out: Chemotaxis IC50

T4 sequence (P23443 1-421 T412E limits assumed): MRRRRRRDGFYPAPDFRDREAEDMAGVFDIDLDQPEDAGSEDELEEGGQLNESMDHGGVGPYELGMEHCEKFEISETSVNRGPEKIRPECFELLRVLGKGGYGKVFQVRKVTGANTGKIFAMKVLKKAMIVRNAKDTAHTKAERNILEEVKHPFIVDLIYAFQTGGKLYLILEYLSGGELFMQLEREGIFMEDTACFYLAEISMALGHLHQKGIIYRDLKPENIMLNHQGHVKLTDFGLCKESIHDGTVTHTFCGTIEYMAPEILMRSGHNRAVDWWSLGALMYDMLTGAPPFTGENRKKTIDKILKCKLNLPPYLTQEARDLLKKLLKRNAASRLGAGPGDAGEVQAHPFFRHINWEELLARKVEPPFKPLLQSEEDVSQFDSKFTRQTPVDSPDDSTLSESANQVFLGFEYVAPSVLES
T2 sequence (O75116 11-552 limits assumed): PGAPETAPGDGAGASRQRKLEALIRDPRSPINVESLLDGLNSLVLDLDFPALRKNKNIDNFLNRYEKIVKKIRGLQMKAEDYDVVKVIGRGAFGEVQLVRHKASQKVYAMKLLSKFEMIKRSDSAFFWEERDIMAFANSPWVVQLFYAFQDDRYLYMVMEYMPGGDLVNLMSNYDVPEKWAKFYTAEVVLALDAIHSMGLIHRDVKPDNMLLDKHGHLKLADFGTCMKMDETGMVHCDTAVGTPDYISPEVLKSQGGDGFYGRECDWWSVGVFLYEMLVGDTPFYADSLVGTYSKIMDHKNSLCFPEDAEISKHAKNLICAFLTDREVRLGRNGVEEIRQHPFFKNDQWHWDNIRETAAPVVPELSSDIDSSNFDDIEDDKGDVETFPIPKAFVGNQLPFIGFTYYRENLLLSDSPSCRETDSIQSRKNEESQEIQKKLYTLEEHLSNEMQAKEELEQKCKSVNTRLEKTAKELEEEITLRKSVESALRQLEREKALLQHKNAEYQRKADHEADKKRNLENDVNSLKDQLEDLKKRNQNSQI
T1 sequence (Q13464 17-535 limits assumed): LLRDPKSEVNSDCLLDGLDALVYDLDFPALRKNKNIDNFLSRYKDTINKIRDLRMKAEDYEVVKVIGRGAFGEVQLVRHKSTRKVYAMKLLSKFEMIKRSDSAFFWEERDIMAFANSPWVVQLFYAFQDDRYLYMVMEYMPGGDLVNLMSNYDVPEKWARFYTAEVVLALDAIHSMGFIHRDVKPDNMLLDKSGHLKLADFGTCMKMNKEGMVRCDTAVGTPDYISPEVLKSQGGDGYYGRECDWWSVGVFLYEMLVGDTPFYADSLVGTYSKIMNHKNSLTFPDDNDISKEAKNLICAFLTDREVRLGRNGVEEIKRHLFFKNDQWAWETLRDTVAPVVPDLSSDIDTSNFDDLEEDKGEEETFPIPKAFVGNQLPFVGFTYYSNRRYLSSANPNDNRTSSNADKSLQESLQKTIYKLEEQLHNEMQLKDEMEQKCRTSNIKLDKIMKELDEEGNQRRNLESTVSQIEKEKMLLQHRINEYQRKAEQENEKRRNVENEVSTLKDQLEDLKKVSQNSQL
T3 sequence (Q9Y243 whole entry): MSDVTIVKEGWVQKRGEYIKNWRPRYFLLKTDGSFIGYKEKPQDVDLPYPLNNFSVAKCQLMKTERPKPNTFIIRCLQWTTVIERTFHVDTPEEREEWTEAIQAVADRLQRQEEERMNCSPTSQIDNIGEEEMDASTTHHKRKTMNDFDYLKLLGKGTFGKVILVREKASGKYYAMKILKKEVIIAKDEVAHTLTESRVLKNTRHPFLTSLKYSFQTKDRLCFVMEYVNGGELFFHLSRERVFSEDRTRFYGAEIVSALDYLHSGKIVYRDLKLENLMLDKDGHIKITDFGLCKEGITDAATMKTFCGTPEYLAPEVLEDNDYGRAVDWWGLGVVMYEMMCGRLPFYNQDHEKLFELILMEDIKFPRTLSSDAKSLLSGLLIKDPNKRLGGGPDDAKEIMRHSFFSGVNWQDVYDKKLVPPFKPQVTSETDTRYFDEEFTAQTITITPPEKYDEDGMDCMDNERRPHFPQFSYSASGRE

SMILES	Ki (ROCK1; Avg, 10 μM ATP) [nM]	Ki (ROCK2; [4]) [nM]	Vz_F ([1]; mean n = 3)	AUC(0-t) [1, 5] [µM·h]	Cmax [1, 6] [nM]	Tmax [1, 7] [h]	half-life ([1]; male, CD Sprague Dawley) [h]	IC50 (human neutrophils; [8]) [nM]	Ki (ROCK1; average Ki) [nM]	Ki (ROCK2; average Ki, read-out: ROCK2 Ki) [nM]	Ki (Akt3 human enzyme; [9]) [nM]	Ki (Akt3 human enzyme; average Ki, read-out: Akt3 Ki) [nM]	Ki (p70S6K human enzyme; [10]) [nM]	Ki (p70S6K human enzyme; [11]) [nM]	concentration at 15 min [3] [nM]	IC50 (human neutrophils; [12]) [nM]	other results
Cc1ccc(CN2CCC[C@H](Nc3cccc4cnccc34)C2)cc1 [Compound 2.045, (S)-N-(1-(4-methylbenzyl)piperidin-3-yl)isoquinolin-5-amine]	90.6	88	226 L/kg	0.456	223	0.67	1.59	–	–	–	–	–	–	–	–	–	–
CS(=O)(=O)Nc1cccc(CN2CC[C@H](Nc3cccc4cnccc34)C2)c1 [Compound 2.035, (S)-N-(3-((3-(isoquinolin-5-ylamino)pyrrolidin-1-yl)methyl)phenyl)methanesulfonamide]	601	202	–	–	–	–	–	6600	–	–	–	–	–	–	–	–	–
OCCOc1cccc(CN2CCC[C@H](Nc3cccc4cnccc34)C2)c1 [Compound 2.036, (S)-2-(3-((3-(isoquinolin-5-ylamino)piperidin-1-yl)methyl)phenoxy)ethanol]	579	233	–	–	–	–	–	2770	–	–	–	–	–	–	–	–	–
OCCn1ccc2ccc(CN3CCC[C@@H](Nc4ccc5[nH]ncc5c4)C3)cc21 [Compound 1.108, (R)-2-(6-((3-(1H-indazol-5-ylamino)piperidin-1-yl)methyl)-1H-indol-1-yl)ethanol]	25.6	6.5	116 L/kg	0.415	209	0.83	1.36	–	25.6	6.5	205	205	511	511	395	–	Percent of PDGF Induced Proliferation at 1 μM Avg [2]: 83.1%; Percent of PDGF Induced Proliferation at 10 μM Avg [2]: 43.7%
CS(=O)(=O)Nc1cccc(CN2CCC(Nc3ccc4[nH]ncc4c3)C2)c1 (centres unmarked) [Compound 1.087, N-(3-((3-(1H-indazol-5-ylamino)pyrrolidin-1-yl)methyl)phenyl)methanesulfonamide]	84.1	15.4	–	–	–	–	–	4500	–	–	–	–	–	–	–	–	–
c1cc2cc(CN3CCC[C@@H](Nc4ccc5[nH]ncc5c4)C3)ccc2s1 [Compound 1.138, (R)-N-(1-(benzo[b]thiophen-5-ylmethyl)piperidin-3-yl)-1H-indazol-5-amine]	36.3	7.2	–	–	–	–	–	1850	41.1	6.3	91.3	91.3	444	444	1860	1900	Percent of PDGF Induced Proliferation at 1 μM Avg [2]: 46.3%; Percent of PDGF Induced Proliferation at 10 μM Avg [2]: 27.0%
C[C@@H](N)c1ccc(C(=O)Nc2ccnc3[nH]ccc23)cc1 [Compound Y-39983, reference compound]	–	–	–	–	–	–	–	1390	–	–	–	–	–	–	–	–	–
Cc1ccc(CN2CC[C@@H](Nc3cccc4cnccc34)C2)cc1 [Compound 2.025, (R)-N-(1-(4-methylbenzyl)pyrrolidin-3-yl)isoquinolin-5-amine]	6.9	2.9	–	–	–	–	–	1650	6.9	2.9	966	966	499	499	74	1700	Percent of PDGF Induced Proliferation at 1 μM Avg [2]: 69.8%; Percent of PDGF Induced Proliferation at 10 μM Avg [2]: 68.0%
O=S(=O)(c1cccc2cnccc12)N1CCCNCC1 [fasudil, reference compound]	–	–	–	–	–	–	–	23800	–	–	–	–	–	–	–	–	–
CCS(=O)(=O)Nc1cccc(CN2CCC[C@@H](Nc3ccc4[nH]ncc4c3)C2)c1 [Compound 1.123, (R)-N-(3-((3-(1H-indazol-5-ylamino)piperidin-1-yl)methyl)phenyl)ethanesulfonamide]	82.3	9.6	14.8 L/kg	2.06	2040	0.33	0.9	3050	82.3	9.6	2410	2410	2810	2810	71	3100	–
OCCOc1cccc(CN2CCC[C@@H](Nc3cccc4cnccc34)C2)c1 [Compound 2.034, (R)-2-(3-((3-(isoquinolin-5-ylamino)piperidin-1-yl)methyl)phenoxy)ethanol]	1000	221	–	–	–	–	–	4730	–	–	–	–	–	–	–	–	–
OCCOc1cccc(CN2CC[C@@H](Nc3cccc4cnccc34)C2)c1 [Compound 2.039, (R)-2-(3-((3-(isoquinolin-5-ylamino)pyrrolidin-1-yl)methyl)phenoxy)ethanol]	18.8	6.7	59.4 L/kg	0.905	783	0.33	1.13	1640	18.8	6.7	1990	1990	1010	1010	92	1600	–
NC(=O)Cn1ccc2ccc(CN3CCC[C@H](Nc4ccc5[nH]ncc5c4)C3)cc21 [Compound 1.107, (S)-2-(6-((3-(1H-indazol-5-ylamino)piperidin-1-yl)methyl)-1H-indol-1-yl)acetamide]	234	14	36.3 L/kg	1.59	544	1.67	1.28	–	–	–	16300	–	3360	–	–	–	–
CCc1ccc(CN2CCC[C@@H](Nc3ccc4[nH]ncc4c3)C2)cc1 [Compound 1.136, (R)-N-(1-(4-ethylbenzyl)piperidin-3-yl)-1H-indazol-5-amine]	40.3	5.4	BLQ	–	–	–	–	2600	25.8	5.1	290	290	1240	1240	–	2600	AUC (0-last) ([1]; mean n = 3): BLQ; Cmax ([1]; mean n = 3): BLQ; Tmax ([1]; mean n = 3): BLQ; t½ ([1]; mean n = 3): BLQ
